Measured values published in US10131663B2, “Chemical compounds” (AstraZeneca AB, priority 2016, dated 2018).
≈ marks a conversion by molar mass, not a printed value.

Legend:
[1] = Thermodynamic solubility (shake-flask); format: physicochemical; conditions: aqueous phosphate buffer pH 7.4, 24 hours
Procedure: The thermodynamic solubility of a research compound is measured under standard conditions. It is a shake-flask approach that uses 10 mM DMSO solutions which are supplied from the Compound Managements liquid store and is a high throughput method. The dried compounds are equilibrated in an aqueous phosphate buffer (pH 7.4) for 24 hours at 25° C., the portion with the dissolved compound is then separated from the remains. The solutions are analyzed and quantified using UPLC/MS/MS, QC-samples are incorporated in each assay-run to ensure the quality of the assay.

[2] = Human plasma protein binding (equilibrium dialysis); format: in vitro ADME; conditions: dialysis 18 hours
Procedure: The automated equilibrium dialysis assay in human plasma uses the RED (Rapid Equilibrium Dialysis) Device and sample handling. The assay generally runs over two to three days including delivery of results. After dialysis for 18 hours, plasma and buffer samples are prepared for analysis by liquid chromatography and mass spectrometry. Samples are generally tested in singlicates and quantified by LC/MSMS by using a 7-point calibration curve in plasma. The compounds are pooled together in plasma pools up to 10 compounds. Three reference compounds are used in each run, Propranolol, Metoprolol and Warfarin. Warfarin is used as a control in each pool and Propranolol and Metoprolol are placed randomly in each run. An in-house Excel macro is used for preparation of files for the robot and the mass spectrometer and is also used for the calculations of fraction unbound (fu %) in plasma.

[3] = log D (shake flask, 1-octanol/aqueous buffer); format: physicochemical
Source text: The lipophilicity of a drug is an important physical property which may influence many biological and metabolic properties of a compound, for example the absorption, distribution, metabolism, excretion and toxicity profiles of a compound. The distribution coefficient between 1-octanol and aqueous buffer, Log DO/W, at pH 7.4, is the most commonly used measurement of the lipophilicity of a compound. The current method for measurement of Log DO/W is based on the traditional shake flask technique, but with the modification of measuring compounds in mixtures of ten at a time using UPLC with quantitative mass spectrometry (MS) as a method to measure the relative octanol and aqueous concentrations. […] An additional QC sample Caffeine, with low Log D, are used and randomly placed in all runs. The method has been thoroughly validated against the previous shake flask methodologies.

[4] = target: recombinant human Estrogen Receptor alpha ligand binding domain (ER alpha-LBD (GST)) (Homo sapiens (Human), UniProt P03372); test: ERα binding assay (LanthaScreen TR-FRET competition); conditions: TR-FRET, displacement of Fluormone ES2
Procedure: The ability of compounds to bind to isolated Estrogen Receptor Alpha Ligand binding domain (ER alpha-LBD (GST)) was assessed in competition assays using a LanthaScreen™ Time-Resolved Fluorescence Resonance Energy Transfer (TR-FRET) detection end-point. […] The assay principle is that ER alpha-LBD (GST) is added to a fluorescent ligand to form a receptor/fluorophore complex. A terbium-labelled anti-GST antibody (Product code PV3551) is used to indirectly label the receptor by binding to its GST tag, and competitive binding is detected by a test compound's ability to displace the fluorescent ligand, resulting in a loss of TR-FRET signal between the Tb-anti-GST antibody and the tracer. The assay was performed as follows with all reagent additions carried out using the Beckman Coulter BioRAPTR FRD microfluidic workstation: • 1. Acoustic dispense 120 nL of the test compound into a black low volume 384 well assay plates. • 2. Prepare 1×ER alpha-LBD/Tb-antiGST Ab in ES2 screening buffer and incubate for 15 minutes. • 3. Dispense 6 μL of the 1×[…]/Tb-anti-GST Ab reagent into each well of the assay plate followed by 6 μL of Fluorophore reagent into each well of the assay plate • 4. Cover the assay plate to protect the reagents from light and evaporation, and incubate at room temperature for 4 hours. • 5.
TR-FRET dose response data obtained with each compound was exported into a suitable software package (such as Origin or Genedata) to perform curve fitting analysis. Competitive ER alpha binding was expressed as an IC50 value.

[5] = target: Estrogen Receptor (ERα) in MCF-7 cells (Homo sapiens (Human), UniProt P03372); test: MCF-7 ER down-regulation assay (immuno-fluorescence); format: cell-based; conditions: for DC50: read-out: ER down regulation IC50 value
Procedure: The Echo uses acoustic technology to perform direct microplate-to-microplate transfers of DMSO compound solutions to assay plates. […] Cells were fixed at room temperature for 20 mins before being washed two times with 250 μL PBS/Proclin (PBS with a Biocide preservative) using a BioTek platewasher, 40 μL of PBS/Proclin was then added to all wells and the plates stored at 4° C. The fixing method described above was carried out on the Integrated Echo 2 workcell. Immunostaining was performed using an automated AutoElisa workcell. […] The plates were incubated overnight at 4° C. […] The mean total intensity was normalized for cell number giving the total intensity per cell. The data was exported into a suitable software package (such as Origin) to perform curve fitting analysis.

[6] = aqueous phosphate buffer, 25 °C, pH 7.4, aqueous buffer, thermodynamic from solid
[7] = 1-octanol/aqueous buffer, pH 7.4, pH 7.4, 1-octanol/aqueous buffer
[8] = pH 7.4, 1-octanol/aqueous buffer

Sequence of recombinant human Estrogen Receptor alpha ligand binding domain (ER alpha-LBD (GST)) (P03372 307-554): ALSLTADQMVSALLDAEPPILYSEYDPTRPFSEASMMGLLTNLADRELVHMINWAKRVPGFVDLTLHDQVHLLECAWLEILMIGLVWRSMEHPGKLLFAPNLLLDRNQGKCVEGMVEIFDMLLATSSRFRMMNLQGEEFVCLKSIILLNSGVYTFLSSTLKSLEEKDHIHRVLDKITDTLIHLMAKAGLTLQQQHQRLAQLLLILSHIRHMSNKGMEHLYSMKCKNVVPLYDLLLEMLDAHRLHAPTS
Sequence of Estrogen Receptor (ERα) in MCF-7 cells (P03372 whole entry): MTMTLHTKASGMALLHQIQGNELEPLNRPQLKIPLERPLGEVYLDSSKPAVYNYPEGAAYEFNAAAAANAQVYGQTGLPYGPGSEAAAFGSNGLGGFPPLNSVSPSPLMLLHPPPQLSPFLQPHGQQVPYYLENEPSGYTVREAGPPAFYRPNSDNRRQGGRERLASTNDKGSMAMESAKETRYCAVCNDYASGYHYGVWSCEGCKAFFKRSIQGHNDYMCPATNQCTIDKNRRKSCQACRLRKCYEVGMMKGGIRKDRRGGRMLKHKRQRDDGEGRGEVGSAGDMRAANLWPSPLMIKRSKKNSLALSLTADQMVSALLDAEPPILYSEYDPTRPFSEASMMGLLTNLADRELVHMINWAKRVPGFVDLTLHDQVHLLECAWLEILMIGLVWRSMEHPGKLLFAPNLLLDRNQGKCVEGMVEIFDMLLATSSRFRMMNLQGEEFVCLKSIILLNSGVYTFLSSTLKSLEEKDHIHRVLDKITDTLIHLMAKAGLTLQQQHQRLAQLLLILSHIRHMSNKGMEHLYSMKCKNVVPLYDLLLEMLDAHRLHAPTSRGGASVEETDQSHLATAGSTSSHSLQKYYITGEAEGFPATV

Row | Structure (SMILES) | solubility at 24 h [1, 6] [µM] | Human plasma protein binding (% free) [2] [% free] | logD [3, 7] | other results
1 | COC[C@](C)(F)CN1[C@H](c2ccc(OC3CN(CCCF)C3)cc2OC)c2ccc3[nH]ncc3c2C[C@H]1C (single isomer, unassigned) [Example 12] | 77 (≈ 40.7 µg/mL) | 2.7 | 3.9 | –
2 | COC[C@](C)(F)CN1[C@H](c2ccc(OC3CN(CCCF)C3)cc2OC)c2ccc3[nH]ncc3c2C[C@H]1C (single isomer, unassigned) [Example 13] | – | 6.4 | – | solubility at 24 h ([1]; 25° C.): 78 µM (≈ 41.2 µg/mL); LogD pH 7.4 [3, 8]: 4
3 | COC[C@](C)(F)CN1[C@H](c2ccc(NC3CN(CCCF)C3)cc2OC)c2ccc3[nH]ncc3c2C[C@H]1C (single isomer, unassigned) [Example 14] | 897 (≈ 473 µg/mL) | 16 | 2.6 | –
4 | COC[C@](C)(F)CN1[C@H](c2ccc(NC3CN(CCCF)C3)cc2OC)c2ccc3[nH]ncc3c2C[C@H]1C (single isomer, unassigned) [Example 15] | – | 34 | – | solubility at 24 h ([1]; 25° C.): 821 µM (≈ 433 µg/mL); LogD pH 7.4 [3, 8]: 2.5
5 | C[C@@H]1Cc2c(ccc3[nH]ncc23)[C@@H](c2c(F)cc(NC3CN(CCCF)C3)cc2F)N1CC(C)(F)CO (single isomer, unassigned) [Example 23] | 339 (≈ 176 µg/mL) | 9.5 | 3.1 | IC50 [4]: 15 nM; DC50 [5]: 0.15 nM
6 | C[C@@H]1Cc2c(ccc3[nH]ncc23)[C@@H](c2c(F)cc(NC3CN(CCCF)C3)cc2F)N1CC(C)(F)CO (single isomer, unassigned) [Example 24] | – | – | – | IC50 [4]: 10 nM; DC50 [5]: 0.21 nM
7 | CC(F)CN1[C@H](c2ccc(NC3CN(CCCF)C3)cn2)c2ccc3[nH]ncc3c2C[C@H]1C (single isomer, unassigned) [Example 65] | 790 (≈ 359 µg/mL) | – | 2.4 | –
8 | CC(F)CN1[C@H](c2ccc(NC3CN(CCCF)C3)cn2)c2ccc3[nH]ncc3c2C[C@H]1C (single isomer, unassigned) [Example 66] | – | – | – | solubility at 24 h ([1]; 25° C.): 931 µM (≈ 423 µg/mL); LogD pH 7.4 [3, 8]: 2.3
9 | COc1cc(NC2CN(CCCF)C2)ccc1[C@@H]1c2ccc3[nH]ncc3c2C[C@@H](C)N1CC(C)F (single isomer, unassigned) [Example 67] | 914 (≈ 442 µg/mL) | 19 | 2.7 | –
10 | COc1cc(NC2CN(CCCF)C2)ccc1[C@@H]1c2ccc3[nH]ncc3c2C[C@@H](C)N1CC(C)F (single isomer, unassigned) [Example 68] | – | 37 | – | solubility at 24 h ([1]; 25° C.): 561 µM (≈ 271 µg/mL); LogD pH 7.4 [3, 8]: 2.4
11 | COCC(C)(F)CN1[C@H](c2ccc(NC3CN(CCCF)C3)cc2OC)c2ccc3[nH]ncc3c2C[C@H]1C (stereo partly drawn) [Example 4, N-(4-((6S,8R)-7-(2-fluoro-3-methoxy-2-methylpropyl)-8-methyl-6,7,8,9-tetrahydro-3H-pyrazolo[4,3-f]isoquinolin-6-yl)-3-methoxyphenyl)-1-(3-fluoropropyl)azetidin-3-amine] | 991 (≈ 523 µg/mL) | 21 | 2.7 | –
12 | COc1cc(NC2CN(CCCF)C2)cnc1[C@@H]1c2ccc3[nH]ncc3c2C[C@@H](C)N1CC(F)(F)F [Example 37, N-(1-(3-fluoropropyl)azetidin-3-yl)-5-methoxy-6-((6S,8R)-8-methyl-7-(2,2,2-trifluoroethyl)-6,7,8,9-tetrahydro-3H-pyrazolo[4,3-f]isoquinolin-6-yl)pyridin-3-amine] | 961 (≈ 487 µg/mL) | 25 | 2.6 | –
13 | C[C@@H]1Cc2c(ccc3[nH]ncc23)[C@@H](c2ccc(N(C)C3CN(CCCF)C3)cn2)N1CC(F)F [Example 43, 6-((6S,8R)-7-(2,2-difluoroethyl)-8-methyl-6,7,8,9-tetrahydro-3H-pyrazolo[4,3-f]isoquinolin-6-yl)-N-(1-(3-fluoropropyl)azetidin-3-yl)-N-methylpyridin-3-amine] | – | – | – | IC50 [4]: 4.1 nM; IC50 [5]: 0.25 nM
14 | FCCCN1CC(Nc2ccc([C@@H]3c4ccc5[nH]ncc5c4C[C@@H](C(F)F)N3CC(F)F)nc2)C1 [Example 51, 6-((6S,8S)-7-(2,2-difluoroethyl)-8-(difluoromethyl)-6,7,8,9-tetrahydro-3H-pyrazolo[4,3-f]isoquinolin-6-yl)-N-(1-(3-fluoropropyl)azetidin-3-yl)pyridin-3-amine] | > 1000 | 28 | – | logD [3, 8]: 2.7
15 | C[C@@H]1Cc2c(ccc3[nH]ncc23)[C@@H](c2ccc(NC3CN(CCCF)C3)nc2)N1CC1(F)CC1 [Example 54, 5-((6S,8R)-7-((1-fluorocyclopropyl)methyl)-8-methyl-6,7,8,9-tetrahydro-3H-pyrazolo[4,3-f]isoquinolin-6-yl)-N-(1-(3-fluoropropyl)azetidin-3-yl)pyridin-2-amine] | > 1000 | 57 | 1.4 | –
16 | C[C@@H]1Cc2c(ccc3[nH]ncc23)[C@@H](c2ccc(NC3CN(CCCF)C3)cn2)N1CC(C)(C)F [Example 63, 6-((6S,8R)-7-(2-fluoro-2-methylpropyl)-8-methyl-6,7,8,9-tetrahydro-3H-pyrazolo[4,3-f]isoquinolin-6-yl)-N-(1-(3-fluoropropyl)azetidin-3-yl)pyridin-3-amine] | 870 (≈ 408 µg/mL) | 10 | – | logD [3, 8]: 3.2
17 | C[C@@H]1Cc2c(ccc3[nH]ncc23)[C@@H](c2ccc(NC3CN(CCCF)C3)cn2)N1CC(C)(F)F [Example 70, 6-((6S,8R)-7-(2,2-difluoropropyl)-8-methyl-6,7,8,9-tetrahydro-3H-pyrazolo[4,3-f]isoquinolin-6-yl)-N-(1-(3-fluoropropyl)azetidin-3-yl)pyridin-3-amine] | 857 (≈ 405 µg/mL) | 24 | – | logD [3, 8]: 2.9
18 | C[C@@H]1Cc2c(ccc3[nH]ncc23)[C@@H](c2ncc(NC3CN(CCCF)C3)cc2F)N1CC(F)(F)CF [Example 71, 5-fluoro-N-(1-(3-fluoropropyl)azetidin-3-yl)-6-((6S,8R)-8-methyl-7-(2,2,3-trifluoropropyl)-6,7,8,9-tetrahydro-3H-pyrazolo[4,3-f]isoquinolin-6-yl)pyridin-3-amine] | 666 (≈ 339 µg/mL) | – | – | logD [3, 8]: 3.2
19 | CC1(C)Cc2c(ccc3[nH]ncc23)[C@@H](c2ccc(NC3CN(CCCF)C3)cn2)N1CC(F)(F)F [Example 72, (S)-6-(8,8-dimethyl-7-(2,2,2-trifluoroethyl)-6,7,8,9-tetrahydro-3H-pyrazolo[4,3-f]isoquinolin-6-yl)-N-(1-(3-fluoropropyl)azetidin-3-yl)pyridin-3-amine] | 738 (≈ 362 µg/mL) | 14 | – | logD [3, 8]: 3.3
